Data from PubChem BioAssay (NCI).
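Cultured in 96-well plates, cells were exposed to test compound for 48 hours across five concentrations. TGI denotes the concentration required for complete inhibition of growth.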

How the values were obtained:
Test in all cases: inhibition of tumour cell growth, NCI panel, 48 h
[1] = system: UACC-257 melanoma
[2] = system: TK-10 renal
[3] = system: NCI-H460 lung
[4] = system: HS 578T breast
[5] = system: CAKI-1 renal
[6] = system: IGROV1 ovarian
[7] = system: PC-3 prostate
[8] = system: MDA-N
[9] = system: UACC-62 melanoma
[10] = system: U251 CNS
[11] = system: HCT-15 colon
[12] = system: SF-539 CNS
[13] = system: BT-549 breast
[14] = system: SN12C renal
[15] = system: RPMI-8226 leukemia
[16] = system: NCI/ADR-RES ovarian
[17] = system: MDA-MB-231 breast
[18] = system: OVCAR-8 ovarian
[19] = system: COLO 205 colon
[20] = system: SF-295 CNS

Structure (SMILES)	TGI [1] [µM]	TGI [2] [µM]	TGI [3] [µM]	TGI [4] [µM]	TGI [5] [µM]	TGI [6] [µM]	TGI [7] [µM]	TGI [8] [µM]	TGI [9] [µM]	TGI [10] [µM]	TGI [11] [µM]	TGI [12] [µM]	TGI [13] [µM]	TGI [14] [µM]	TGI [15] [µM]	TGI [16] [µM]	TGI [17] [µM]	TGI [18] [µM]	TGI [19] [µM]	TGI [20] [µM]
Cc1ccc(C(=O)Oc2ccccc2)cc1N=NN(C)C	> 100	> 100	> 100	> 100	> 100	> 100	> 100	> 100	> 100	> 100	> 100	> 100	> 100	> 100	> 100	> 100	> 100	> 100	> 100	> 100
CN(N=O)c1nc2c(C(N)=O)ncn2s1	> 100	> 100	> 100	> 100	> 100	> 100	> 100	> 100	> 100	> 100	> 100	> 100	> 100	> 100	> 100	> 100	> 100	> 100	> 100	> 100
Cc1ccc2nc(NS(=O)(=O)c3cc(C)c(Cl)cc3S)[nH]c2c1	> 100	> 100	38.6	> 100	> 100	> 100	> 100	> 100	> 100	> 100	> 100	> 100	> 100	> 100	> 100	> 100	> 100	> 100	> 100	> 100
O=C1CSC(c2ccccc2O)N1c1ccc(-n2c(-c3ccccc3)nc3ccccc3c2=O)cc1 (stereo not given)	82.2	> 100	50.8	> 100	> 100	93.9	58.7	> 100	90.3	> 100	60.1	58.9	61.5	> 100	> 100	72.6	37.5	> 100	> 100	50.5
CC(C)(C)OC(=O)CCCCCNC(=O)CCCCCNC(=O)CCC(CN(CC(=O)OCc1ccccc1)CC(=O)OCc1ccccc1)N(CC(=O)OCc1ccccc1)CC(=O)OCc1ccccc1 (stereo not given)	> 100	> 100	> 100	> 100	> 100	> 100	> 100	> 100	> 100	> 100	> 100	> 100	> 100	> 100	> 100	> 100	> 100	> 100	> 100	> 100
COC(=O)/C=C/[C@@H]1[C@H](C)N1S(=O)(=O)c1ccc(C)cc1 (stereo not given in full)	> 100	> 100	> 100	> 100	> 100	> 100	> 100	> 100	> 100	> 100	> 100	> 100	> 100	> 100	> 100	> 100	> 100	> 100	> 100	> 100
NC(=O)[N+](=CC(=S)Nc1ccccc1Cl)C(N)=O	> 100	> 100	> 100	> 100	> 100	> 100	> 100	> 100	> 100	> 100	> 100	> 100	> 100	> 100	> 100	> 100	> 100	> 100	> 100	> 100
O=C1NC2(CCNCC2)Oc2ccccc21	> 100	> 100	> 100	> 100	> 100	> 100	> 100	> 100	> 100	> 100	> 100	> 100	> 100	> 100	> 100	> 100	> 100	> 100	> 100	> 100
COc1ccccc1C(=O)N(Cc1ccccc1)c1ccc(Cl)c(C(=O)OC(C)C)c1	> 88.7	> 100	> 100	> 100	71.1	> 100	75.3	> 100	> 100	> 100	> 100	> 100	> 100	> 100	29	85.6	> 100	> 100	50.9	> 100
O=C1Oc2ccccc2C(=O)/C1=C/N1C(=O)CNC1=S	> 100	> 100	> 100	> 100	> 100	> 100	> 100	> 100	> 100	> 100	> 100	> 100	> 100	> 100	> 100	> 100	> 100	> 100	> 100	> 100
Cc1[nH]c(-c2ccccc2)c2nc(N(C)C)oc(=O)c12	> 100	> 100	> 100	> 100	> 100	> 100	> 100	> 100	> 100	> 100	> 100	> 100	> 100	> 100	> 100	> 100	> 100	> 100	> 100	> 100
